Test results published in PubChem BioAssay AID1996.
Values after ≈ are worked out from the molar mass of the structure shown.

Settings: buffer; pH 7.4; 200.0 µM

solubility kinetic	SMILES
3.8 µg/mL (≈ 13.4 µM)	O=C(Nc1nccs1)c1ccc([N+](=O)[O-])cc1Cl
19.6 µg/mL (≈ 72.2 µM)	O=C1C2C3C=CC(CC3)C2C(=O)N1c1ccccc1F (stereo not drawn)
20.9 µg/mL (≈ 92 µM)	Cc1ccccc1N=Cc1cccc(O)c1O
> 35.4 µg/mL	O=[N+]([O-])c1ccc(C(=S)N2CCCC2)cc1
20.3 µg/mL (≈ 65 µM)	COC(=O)c1sccc1NC(=S)N1C(C)CCCC1C (stereo not drawn)
> 31.2 µg/mL	S=C1NCN(Cc2cccnc2)CN1
> 48.2 µg/mL	CCOC(=O)c1nc(Nc2ccccc2CC)c2ccccc2n1
> 40.8 µg/mL	Cc1ccccc1NCCC(=O)Nc1ccc(F)cc1
7.6 µg/mL (≈ 20 µM)	CCc1cccc(C)c1NC(=O)CN1C(=O)NC(CCc2ccccc2)C1=O (stereo not drawn)
49.9 µg/mL (≈ 147 µM)	COc1ccc(C(=O)N(c2ccccn2)C2CCCCC2)c(OC)c1
1 µg/mL (≈ 3.52 µM)	CN(C)c1nc(-c2ccccc2)c2cc(Cl)ccc2n1
47.2 µg/mL (≈ 138 µM)	CC(C)CN1C(=O)C(=O)N(CC(=O)c2ccc3c(c2)CCCC3)C1=O
> 67.9 µg/mL	CN(c1ccc(OCC(=O)NC2CCC(O)CC2)cc1)S(=O)(=O)c1ccc(Cl)cc1 (stereo not drawn)
21.1 µg/mL (≈ 67.5 µM)	CC(=O)Nc1ccc(NC(=O)CCOc2ccccc2C)cc1
7.1 µg/mL (≈ 14.6 µM)	COc1cc(/C=C/C(=O)Nc2ccc(OC)c(S(=O)(=O)N3CCOCC3)c2)ccc1OCC#N
> 50.3 µg/mL	CCN(CC(=O)Nc1c(F)cccc1F)C(=O)c1ccc(=O)[nH]c1
> 49.9 µg/mL	CC(C)N(C(=O)Cn1cnc2cc([N+](=O)[O-])ccc2c1=O)C(C)C
0.8 µg/mL (≈ 2.31 µM)	CSc1ccccc1NC(=O)C1CC(c2ccccc2Cl)=NO1 (stereo not drawn)
16 µg/mL (≈ 57.5 µM)	C=C(C)n1c(=O)n(Cc2ccccc2C)c2ccccc21

solubility kinetic	SMILES
> 53.6 µg/mL	CCN(C(=O)CSc1nc(C)c(C)c(C)n1)C1CCS(=O)(=O)C1 (stereo not drawn)
> 54.2 µg/mL	CCOc1cc(/C=C\c2nc(O)c([N+](=O)[O-])c(=O)[nH]2)ccc1OC(C)C
> 44.7 µg/mL	Cc1cccc(NC(=O)CCN2CCN(C)CC2)c1.Cl
33.5 µg/mL (≈ 77.9 µM)	COc1ccc(C(C)=O)cc1COC(=O)C1CCN(C(=O)c2ccc(Cl)cc2)CC1
2.5 µg/mL (≈ 7.71 µM)	O=C1NC(CCc2ccccc2)C(=O)N1CCOc1ccccc1 (stereo not drawn)
42.6 µg/mL (≈ 131 µM)	CN1CCN(CCC(=O)Nc2cccc(Br)c2)CC1
9.4 µg/mL (≈ 30.5 µM)	CC1CC(C)CN(S(=O)(=O)c2ccc3c(c2)CC(=O)N3)C1 (stereo not drawn)
> 37.4 µg/mL	Cc1ccsc1C(=O)NCc1ccc(F)cc1
9.7 µg/mL (≈ 30.5 µM)	CC(NC(=O)Cc1ccc(Br)cc1)c1ccccc1 (stereo not drawn)
0.4 µg/mL (≈ 1.29 µM)	Clc1ccc(-c2cc(CN3CCCCC3)no2)cc1Cl
41.6 µg/mL (≈ 143 µM)	CC(=O)Nc1ccc(Nc2cc(C)c3ccccc3n2)cc1
> 42.9 µg/mL	CCOC(=O)Cc1csc(NC(=O)CCC(=O)O)n1
> 47 µg/mL	O=C(O)c1ccc2c(c1)C(=O)N(c1cc([N+](=O)[O-])ccn1)C2=O
7.5 µg/mL (≈ 20.7 µM)	O=C(COc1ccc([N+](=O)[O-])cc1Cl)Nc1ccc2[nH]c(=O)[nH]c2c1
29.7 µg/mL (≈ 62.1 µM)	CC1CC(C)CN(C(=O)C(C)N2CCN(S(=O)(=O)c3ccc(Br)s3)CC2)C1 (stereo not drawn)
2.9 µg/mL (≈ 11.1 µM)	CCC(C(=O)Nc1ncc(C)s1)c1ccccc1 (stereo not drawn)
> 47.2 µg/mL	COc1cc(CN2CCN(c3ncccn3)CC2)cc(OC)c1
> 40.1 µg/mL	CC1(C)C(=O)N(c2ccccc2)C1c1ccccc1O (stereo not drawn)
2.5 µg/mL (≈ 7.71 µM)	Cc1nc(NCc2cccnc2)c2c3c(sc2n1)CC(C)CC3 (stereo not drawn)

solubility kinetic	SMILES
40.5 µg/mL	O=c1[nH]c2ccccc2c(O)c1-[n+]1ccccc1.[Cl-]
> 41.6 µg/mL	COc1ccccc1C(=O)NC(=O)COC(=O)C1CC1
15 µg/mL (≈ 31.9 µM)	CC(=O)c1ccc(N2C(=O)CC(N3CCN(S(=O)(=O)c4ccc(C)c(C)c4)CC3)C2=O)cc1 (stereo not drawn)
> 35.3 µg/mL	Cc1ccc(OCCN2CCOCC2)cc1C
> 50.9 µg/mL	O=C(CSc1nncc2ccccc12)Nc1cccc(C(=O)O)c1
> 43.9 µg/mL	COC(=O)c1ccc(NC(=O)CCN2CCOCC2)cc1
> 44 µg/mL	CC(=O)Nc1nc(CC(C)C)cc(-c2ccccc2)c1C#N
43.4 µg/mL (≈ 137 µM)	Nc1ccc(Cl)c(S(=O)(=O)Nc2cccc(Cl)c2)c1
< 0.4 µg/mL	O=C(Cc1ccc(F)cc1)Nc1nc(-c2ccc(F)cc2)cs1
0.8 µg/mL (≈ 2.82 µM)	Clc1ccccc1/C=C/c1nc(-c2cccnc2)no1
> 45.4 µg/mL	Cc1cc(C)c(NC(=O)CSc2cccc[n+]2[O-])c(C)c1
25.6 µg/mL (≈ 79.2 µM)	CCOC(=O)C1CCN(Cc2ccc(-c3ccccc3)cc2)CC1
> 50.9 µg/mL	CCOc1ncccc1C(=O)N1CCN(C(=O)c2ccccc2)CC1
2.5 µg/mL (≈ 6.7 µM)	O=C(CNC(=O)c1ccc(Br)cc1)Nc1ccc2c(c1)CCC2
37.4 µg/mL (≈ 119 µM)	CCC1CN(C(=O)NCc2ccc(F)cc2)c2ccccc2O1 (stereo not drawn)
31.7 µg/mL (≈ 112 µM)	Cc1ccc(C(=O)NCc2ccc3c(c2)OCO3)cc1C
42.6 µg/mL (≈ 134 µM)	CC(C)(C)c1cc(CCC(=O)N2CCC2)cc(C(C)(C)C)c1O
> 48.7 µg/mL	CNC(=O)c1cc(S(=O)(=O)NC2CCCCCC2)ccc1C
1.1 µg/mL (≈ 3.51 µM)	Cn1c(=O)n(CCOc2ccc([N+](=O)[O-])cc2)c2ccccc21

SMILES	solubility kinetic
COc1ccc(C(=O)N2C[C@H]3C[C@@H](C2)c2cccc(=O)n2C3)cc1OC	> 53.2 µg/mL
